Experimental findings from EPA's CvTdb concentration-time database are described below.

Series [1] has as its system Rat. The series is described as follows: concentration in plasma after dosing. As to conditions: 0.5 h; dosed: Wyeth-14643; 5.0 mg/kg; oral; Male; Sprague-Dawley.
For series [2], the system named is Rat. The series is described as follows: concentration in plasma after dosing. As to conditions: 4 h; dosed: Wyeth-14643; 5.0 mg/kg; oral; Male; Sprague-Dawley.
The subject of series [3] is Rat. Kind of series: concentration in thymus after dosing. As to conditions: 10 min; dosed: Bis 2-Chloroethoxy Methane; 20 mg/kg; iv; Female; F344.
The subject of series [4] is Rat. The series is described as follows: concentration in heart after dosing. As to conditions: 3 h; dosed: Bis 2-Chloroethoxy Methane; 20 mg/kg; iv; Male; F344.
Series [5] has as its system Rat. Kind of series: concentration in liver after dosing. As to conditions: 20 min; dosed: Bis 2-Chloroethoxy Methane; 20 mg/kg; iv; Male; F344.
Series [6] deals with Rat. The series is described as follows: concentration in thymus after dosing. As to conditions: 7 h; dosed: Bis 2-Chloroethoxy Methane; 20 mg/kg; iv; Male; F344.
For series [7], the system named is Rat. The series is described as follows: concentration in plasma after dosing. As to conditions: 40 min; dosed: Bis 2-Chloroethoxy Methane; 20 mg/kg; iv; Male; F344.
For series [8], the system named is Rat. Kind of series: concentration in liver after dosing. As to conditions: 10 min; dosed: Bis 2-Chloroethoxy Methane; 20 mg/kg; iv; Female; F344.
Series [9] concerns Rat. Kind of series: concentration in heart after dosing. As to conditions: 10 min; dosed: Bis 2-Chloroethoxy Methane; 20 mg/kg; iv; Male; F344.
Series [10] relates to Rat. The series is described as follows: concentration in heart after dosing. As to conditions: 4 h; dosed: Bis 2-Chloroethoxy Methane; 20 mg/kg; iv; Male; F344.
For series [11], the system named is Rat. Kind of series: concentration in thymus after dosing. As to conditions: 2 h; dosed: Bis 2-Chloroethoxy Methane; 20 mg/kg; iv; Female; F344.
Series [12] has as its system Rat. Kind of series: concentration in plasma after dosing. As to conditions: dosed: Bis 2-Chloroethoxy Methane, 40 mg/kg, iv, Male, Harlan Sprague Dawley.
Series [13] concerns Rat. The series is described as follows: concentration in liver after dosing. As to conditions: 40 min; dosed: Bis 2-Chloroethoxy Methane; 20 mg/kg; iv; Female; F344.
For series [14], the system named is Rat. The series is described as follows: concentration in liver after dosing. As to conditions: 3 h; dosed: Fluorotelomer alcohol 8+2; 80 mg/kg; oral; Female; Harlan Sprague Dawley.
Series [15] deals with Rat. The series is described as follows: concentration in plasma after dosing. As to conditions: dosed: Fluorotelomer alcohol 8+2, 40 mg/kg, iv, Male, F344.
Series [16] relates to Rat. Kind of series: concentration in kidney after dosing. As to conditions: 6 h; dosed: Fluorotelomer alcohol 8+2; 80 mg/kg; oral; Female; Harlan Sprague Dawley.
Series [17] relates to Rat. Kind of series: concentration in liver after dosing. As to conditions: 6 h; dosed: Fluorotelomer alcohol 8+2; 24 mg/kg; oral; Male; Harlan Sprague Dawley.
Series [18] has as its system Rat. The series is described as follows: concentration in plasma after dosing. As to conditions: 20 min; dosed: Di-n-butyl phthalate; 50 mg/kg; oral; Male; Sprague-Dawley.
The test system of series [19] is Rat. Kind of series: concentration in plasma after dosing. As to conditions: 10 h; dosed: Di-n-butyl phthalate; 100 mg/kg; oral; Male; Sprague-Dawley.
The test system of series [20] is Rat. Kind of series: concentration in plasma after dosing. As to conditions: 2 h; dosed: Di-n-butyl phthalate; 100 mg/kg; oral; Male; Sprague-Dawley.
In series [21] the test system is Rat. Kind of series: concentration in brain after dosing. As to conditions: 24 h; dosed: Perfluorodecanoic acid; 10 mg/kg; oral; Male; Harlan Sprague Dawley.
In series [22] the test system is Rat. The series is described as follows: concentration in plasma after dosing. As to conditions: dosed: Perfluorodecanoic acid, 2 mg/kg, iv, Male, F344.
Series [23] deals with Rat. Kind of series: concentration in plasma after dosing. As to conditions: dosed: Perfluorodecanoic acid, 2 mg/kg, iv, Male, F344. The source holds these as a separate data set.
Series [24] concerns Rat. Kind of series: concentration in plasma after dosing. As to conditions: dosed: Perfluorodecanoic acid, 2 mg/kg, iv, Male, F344. This is another data set of the same source.
Series [25] has as its system Rat. The series is described as follows: concentration in plasma after dosing. As to conditions: 12 h; dosed: Primidone; 130 mg/kg; oral; Female; F344.
Series [26] deals with Rat. The series is described as follows: concentration in plasma after dosing. As to conditions: 6 h; dosed: Primidone; 80 mg/kg; oral; Male; F344.
Series [27] concerns Rat. Kind of series: concentration in plasma after dosing. As to conditions: 3 h; dosed: Primidone; 30 mg/kg; oral; Female; F344.
For series [28], the system named is Rat. Kind of series: concentration in thymus after dosing. As to conditions: 8 h; dosed: Thiodiglycolic Acid; 20 mg/kg; iv; Female; Harlan Sprague Dawley.
Series [29] relates to Rat. The series is described as follows: concentration in liver after dosing. As to conditions: 6.667 h; dosed: Thiodiglycolic Acid; 20 mg/kg; iv; Female; Harlan Sprague Dawley.
Series [30] relates to Rat. The series is described as follows: concentration in plasma after dosing. As to conditions: 10 h; dosed: Thiodiglycolic Acid; 20 mg/kg; iv; Male; F344.
The test system of series [31] is Rat. The series is described as follows: concentration in thymus after dosing. As to conditions: 10 min; dosed: Thiodiglycolic Acid; 20 mg/kg; iv; Female; Harlan Sprague Dawley.
Series [32] has as its system Rat. The series is described as follows: concentration in liver after dosing. As to conditions: 6.667 h; dosed: Thiodiglycolic Acid; 20 mg/kg; iv; Female; Harlan Sprague Dawley. This is another data set of the same source.
In series [33] the test system is Rat. The series is described as follows: concentration in thymus after dosing. As to conditions: 2 h; dosed: Thiodiglycolic Acid; 20 mg/kg; iv; Female; Harlan Sprague Dawley.
Series [34] relates to Rat. The series is described as follows: concentration in heart after dosing. As to conditions: 20 min; dosed: Thiodiglycolic Acid; 20 mg/kg; iv; Female; Harlan Sprague Dawley.
Series [35] relates to Rat. Kind of series: concentration in plasma after dosing. As to conditions: dosed: dichloroacetic acid, 60 mg/kg, iv, Female, Harlan Sprague-Dawley.
The subject of series [36] is Rat. The series is described as follows: concentration in plasma after dosing. As to conditions: 5 min; dosed: dichloroacetic acid; 10 mg/kg; iv; Male; F344.
For series [37], the system named is Rat. Kind of series: concentration in plasma after dosing. As to conditions: dosed: dichloroacetic acid, 40 mg/kg, oral, Female, Harlan Sprague Dawley.
Series [38] relates to Rat. Kind of series: concentration in plasma after dosing. As to conditions: 40 min; dosed: dichloroacetic acid; 100 mg/kg; oral; Male; F344.

`Cc1cccc(Nc2cc(Cl)nc(SCC(=O)O)n2)c1C`: the concentration in plasma in the series on Rat [1] is 3830 ng/mL; in the series on Rat [2], 955 ng/mL.

For the molecule `ClCCOCOCCCl` [Bis 2-Chloroethoxy Methane], the concentration in thymus with Rat [3] is 44200 ng/g; with Rat [6] it was 17 ng/g; in the series on Rat [11], 376 ng/g. Moreover, the figures for the concentration in heart with Rat [4], with Rat [9] and in the series on Rat [10] were 116 ng/g, 13200 ng/g and 83.9 ng/g, respectively. Further, the concentration in liver in the series on Rat [5] is 3690 ng/g; in the series with Rat [8], 2550 ng/g; with Rat [13], 636 ng/g. Also, the concentration in plasma in the series with Rat [7] was 1930 ng/mL; in the series with Rat [12] (10 min), 22600 ng/mL; with Rat [12] (5.333 h) it was 67 ng/mL.

`OCCC(F)(F)C(F)(F)C(F)(F)C(F)(F)C(F)(F)C(F)(F)C(F)(F)C(F)(F)F` [Fluorotelomer alcohol 8+2]: the concentration in liver in the series on Rat [14] was found to be 8140 ng/g; in the series with Rat [17] it was 1250 ng/g. Further, the concentration in plasma in the series on Rat [15] (5 min) amounted to 22400 ng/mL; with Rat [15] (3 h), 516 ng/mL. In the series with Rat [16], this molecule returned a concentration in kidney of 834 ng/g.

As for `CCCCOC(=O)c1ccccc1C(=O)O` [Mono-n-butyl phthalate], the concentration in plasma in the series with Rat [18] turned out to be 16800 ng/mL; in the series with Rat [19], 2010 ng/mL; in the series with Rat [20] it was 1290 ng/mL.

Take `O=C(O)C(F)(F)C(F)(F)C(F)(F)C(F)(F)C(F)(F)C(F)(F)C(F)(F)C(F)(F)C(F)(F)F` [Perfluorodecanoic acid]: the concentration in brain with Rat [21] came out at 2840 ng/g. Further, the concentration in plasma came to 6490 ng/mL with Rat [22] (6 h); 2790 ng/mL in the series on Rat [22] (864 h); 5820 ng/mL in the series on Rat [23] (24 h); 764 ng/mL with Rat [23] (1848 h); 5760 ng/mL in the series with Rat [24] (6 h); 777 ng/mL with Rat [24] (864 h).

Regarding `CCC1(c2ccccc2)C(=O)NC(=O)NC1=O` [Phenobarbital], the concentration in plasma is 8210 ng/mL in the series on Rat [25], 5320 ng/mL in the series with Rat [26] and 640 ng/mL with Rat [27].

For `O=C(O)CSCC(=O)O` [Thiodiglycolic Acid], the figures for the concentration in thymus in the series with Rat [28], in the series with Rat [31] and with Rat [33] were 544 ng/g, 7780 ng/g and 1910 ng/g, respectively. Besides, the concentration in liver with Rat [29] was found to be 2190 ng/g; with Rat [32], 17000 ng/g. The same molecule came in with a concentration in plasma with Rat [30] of 304 ng/mL. The same molecule gave a concentration in heart with Rat [34] of 5330 ng/g.

For `O=C(O)C(Cl)Cl` [dichloroacetic acid], the concentration in plasma with Rat [35] (1 h) is 16800 ng/mL; in the series with Rat [35] (2 h), 1340 ng/mL; with Rat [36], 15100 ng/mL; in the series with Rat [37] (10 min), 6310 ng/mL; with Rat [37] (1.5 h) it was 2780 ng/mL; with Rat [38], 39400 ng/mL.
